This is an account of results in patent US11059795B2, “Androgen receptor modulators and methods for their use” (ESSA Pharma, Inc., priority 2018, dated 2021).

Bounds are passed on as bounds.

Series [1] in a line: Hepatocyte stability assay, mouse hepatocytes. Format: in vitro ADME. The conditions noted are these: cryopreserved hepatocytes; for hepatocyte CLint at 1 μM: mouse, 1 μM compound, 0.5 million cells/mL, 37° C., read-out: MH +/− NADPH: Clint (μL/min/million cells); for half-life at 1 μM: read-out: Hepatocytes T½ (min) Mouse. In outline:
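Cryopreserved rat, human or mouse hepatocytes at 0.5 million cells/mL in DMEM with 1 μM compound, 37° C, sampled at 0, 60, 120 and 180 min and quenched with acetonitrile/formic acid. Parent loss vs 0-min by LC/MS/MS gave t½, and Clint = 0.693/t½ × mL incubation/million cells.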

Another series relates to LN-CaP95 cells. Nature of the series: Cell proliferation assay, LNCaP95 (BrdU incorporation). Type of series: cell-based. The conditions noted are these: LNCaP-95, read-out: Cellular Proliferation/Viability IC50 (μM) LNCaP95. The protocol:
(§1) Cell proliferation/viability was measured in LNCaP and PC3 cells with Alamar blue, and proliferation was measured in LN-CaP95 cells with BrdU incorporation. In LNCaP cells, AR specific proliferation is calculated by measuring the difference between control cells treated with or without 0.1 nM R1881.

The next series relates to PC3 cells. Kind of series: Cell proliferation/viability assay, PC3 (Alamar blue). Format: cell-based. Particulars: Homo sapiens; PC-3, Alamar blue; read-out: Cellular Proliferation/Viability IC50 (μM) PC-3. As to the method: as §1
Another series has as its system LNCaP cells. Kind of series: Cell proliferation/viability assay, LNCaP (Alamar blue). Format: cell-based. The conditions noted are these: Homo sapiens, AR specific proliferation with 0.1 nM R1881, read-out: Cellular Proliferation/Viability IC50 (μM) LNCaP. As to the method: as §1
The target of series [2] is LBD of estrogen receptor-β (ERβ) fused to DBD of GAL4 (Homo sapiens, UniProt Q92731). Kind of series: LBD-expressing reporter assay (GeneBLAzer), ERβ LBD. Format: cell-based. The conditions noted are these: inhibition of maximal activity attained with agonist; read-out: Steroid Receptor LBD IC50 (μM) ERβ. The source says: (§2) To assess if the representative compounds (Compounds A13, A28, A38, A74, A93, and A109) compete with ligand (agonist) for the ligand-binding domain (LBD) of steroid hormone receptors (which would be off-target), the GeneBLAzer assay was employed (Thermo Fisher). This assay uses cells that stably express a chimera fusion protein comprising the LBD of a steroid hormone receptor fused to the DNA-binding domain (DBD) of GAL4 along with beta-lactamase reporter under transcriptional control of an upstream activator sequence (UAS). When agonist binds to the LBD of the GAL4 (DBD)-steroid hormone (LBD) chimera fusion protein, the protein binds to the UAS, resulting in expression of beta-lactamase. LBDs of androgen receptor (AR), progesterone receptor-beta (PRβ), glucocorticoid receptor (GR), estrogen receptor-α (ERα), and estrogen receptor-β (ERβ) were tested and IC50s calculated for inhibiting maximal activity attained with agonist.
LBD of estrogen receptor-β (ERβ) fused to DBD of GAL4, sequence (Q92731 264-498 limits assumed): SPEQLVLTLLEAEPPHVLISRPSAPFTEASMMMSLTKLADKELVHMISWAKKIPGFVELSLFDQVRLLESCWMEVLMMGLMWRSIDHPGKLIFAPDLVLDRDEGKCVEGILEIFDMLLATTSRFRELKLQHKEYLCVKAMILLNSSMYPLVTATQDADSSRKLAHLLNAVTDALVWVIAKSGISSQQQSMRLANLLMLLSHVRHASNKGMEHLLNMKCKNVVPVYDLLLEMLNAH

For a further series, the system named is LNCaP tumors. Nature of the series: LNCaP xenografts model in castrated male NCG mice. Format: in vivo. The conditions noted are these: Table 4; extrapolated Cmin in efficacy. As to the method:
Tumor growth was measured in male NCG mice bearing LNCaP tumors. Castration was performed when tumors reached ˜100 mm^3 and dosing (60 mg/kg PO qd) started 1 week after castration. […] Individual tumor volume change from baseline measured at the end of the experiment.

A short description of series [3]: Hepatocyte stability assay, rat hepatocytes. Particulars: cryopreserved hepatocytes, read-out: Hepatocytes T½ (min) Rat. Format: in vitro ADME. The source says: The […] of in vitro intrinsic clearance (Clint) for drug candidates in the early discovery stage is common practice in the pharmaceutical industry. The Clint values of drug candidates can help to confirm whether metabolism is the main clearance pathway when it is compared with the total body clearance in vivo. Hepatocytes are among the routinely used in vitro systems for measuring clearance. Hepatocytes have been reported to retain most of the phase I and phase II metabolic activities, and therefore, it is a useful tool to estimate the intrinsic clearance for potential drug candidates.
Metabolic stability of testing compound were be evaluated using human and mouse hepatocytes and can also be use rat, mouse, or other animal hepatocytes to predict intrinsic clearance. Cryopreserved hepatocytes were removed from the liquid nitrogen tank and thawed in a 37° C. water bath. As soon as the cells pulled away from the vial wall, they were decanted into 48 ml of warm HT medium. Cells were centrifuged for four minutes at 420 rpm (50 g). After removing the supernatant, pellet was re-suspended in warm DMEM medium. Cell density was counted by a hemacytometer.
The assay was carried out in 96-well microtiter plates. Compounds were incubated for 0, 60, 120, and 180 minutes at 37° C. with hepatocytes. Reaction mixtures (50 μL) contained a final concentration of 1 μM test compound, 0.5 million cells/mL hepatocytes in the DMEM medium. At each of the time points (for example, 0, 1, 2, and 3 hours), 200 μL of quench solution (100% acetonitrile with 0.1% formic acid) with internal standard was transferred to each well. Midazolam was included as a positive control to verify assay performance. Plates were sealed and centrifuged at 4° C. for 15 minutes at 4000 rpm. The supernatant is transferred to fresh plates for LC/MS/MS analysis.
Summarized conditions (customizable): [Compound]=[…], Positive control: midazolam and/or naloxone, [Hepatocyte]=0.5 million cells/Ml, time=0, 60, 120, and 180 min, t=37° C.
All samples were analyzed on LC/MS/MS using an AB Sciex API 4000 instrument, coupled to a Shimadzu LC-20AD LC Pump system. Analytical samples were separated using a Waters Atlantis T3 dC18 reverse phase HPLC column (20 mm×2.1 mm) at a flow rate of 0.5 mL/min. The mobile phase consisted of 0.1% formic acid in water (solvent A) and 0.1% formic acid in 100% acetonitrile (solvent B).
The extent of metabolism was calculated as the disappearance of the test compound, compared to the 0-min control reaction incubations. Initial rates were calculated for the compound concentration and used to determine t½ values and subsequently, the intrinsic clearance, Clint. Clint=(0.693)(1/t½(min))(mL incubation/million cells)

Series [4] deals with T1, LBD of androgen receptor (AR) fused to DBD of GAL4 (Homo sapiens, UniProt P10275).
T1 sequence (P10275 669-900 limits assumed): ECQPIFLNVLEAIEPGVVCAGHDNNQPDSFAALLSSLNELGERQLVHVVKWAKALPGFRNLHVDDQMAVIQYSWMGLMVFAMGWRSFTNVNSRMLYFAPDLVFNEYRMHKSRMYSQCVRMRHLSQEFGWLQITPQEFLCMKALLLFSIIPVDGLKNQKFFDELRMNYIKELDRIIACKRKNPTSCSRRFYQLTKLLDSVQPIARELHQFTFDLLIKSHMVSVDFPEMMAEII
Kind of series: LBD-expressing reporter assay (GeneBLAzer), AR LBD. Type of series: cell-based. Particulars: inhibition of maximal activity attained with agonist; read-out: Steroid Receptor LBD IC50 (μM) AR.
From the text: as §2, with “This” for “To assess if the representative compounds (Compounds A13, A28, A38, A74, A93, and A109) compete with ligand (agonist) for the ligand-binding domain (LBD) of steroid hormone receptors (which would be off-target), the GeneBLAzer assay was employed (Thermo Fisher). This”

For `C[C@H](Oc1ccc(C(C)(C)c2cc(Cl)c(OCCCl)c(C#N)c2)cc1)c1ccnc(NS(C)(=O)=O)n1` (single isomer, unassigned) [Compound A170], the hepatocyte CLint at 1 μM in series [1] is below 4 µL/min/1e6 cells.
Turning to `CC(C)(c1ccc(OCc2ocnc2S(C)(=O)=O)cc1)c1cc(Cl)c(OCCCl)c(Cl)c1` [Compound A13, 5-((4-(2-(3,5-dichloro-4-(2-chloroethoxy)phenyl)propan-2-yl)phenoxy)methyl)-4-(methylsulfonyl)oxazole], the IC50 is 4 µM in the series on LN-CaP95 cells; above 10 µM in the series with PC3 cells; 0.85 µM in the series on LNCaP cells; above 10 µM in series [2]; above 10 µM in series [4]. Besides, the half-life at 1 μM in series [1] was 203 min; in series [3] it was 75 min. The hepatocyte CLint at 1 μM in series [1] lay in the range of 4 to 18 µL/min/1e6 cells. Also, the “Cmin at 5 mg/kg PO” value in the series on LNCaP tumors is 2.78 µM.
For the molecule `CC(C)(c1ccc(OCc2ocnc2S(C)(=O)=O)cc1)c1cc(Cl)c(OCCCl)c(C#N)c1` [Compound A28, 3-chloro-2-(2-chloroethoxy)-5-(2-(4-((4-(methylsulfonyl)oxazol-5-yl)methoxy)phenyl)propan-2-yl)benzonitrile], the IC50 in the series on LN-CaP95 cells was 6.43 µM; in the series with PC3 cells it was above 10 µM; with LNCaP cells, 0.68 µM; in series [2] it was above 10 µM; in series [4] it was above 10 µM. Moreover, the half-life at 1 μM was 86 min in series [1] and 31 min in series [3]. Moreover, the hepatocyte CLint at 1 μM in series [1] is 4 to 18 µL/min/1e6 cells.
`CC(C)(c1ccc(OCc2coc(NS(C)(=O)=O)n2)cc1)c1cc(Cl)c(OCCCl)c(Cl)c1` [Compound A38, N-(4-((4-(2-(3,5-dichloro-4-(2-chloroethoxy)phenyl)propan-2-yl)phenoxy)methyl)oxazol-2-yl)methanesulfonamide]: the half-life at 1 μM in series [1] was above 360 min; in series [3], 56 min. Besides, in series [1], the hepatocyte CLint at 1 μM is below 4 µL/min/1e6 cells. Moreover, the IC50 in series [2] and in series [4] was above 10 µM each time.
For `CC(C)(c1ccc(OCc2ccnc(NS(C)(=O)=O)n2)cc1)c1cc(Cl)c(OCCCl)c(Cl)c1` [Compound A74, N-(4-((4-(2-(3,5-dichloro-4-(2-chloroethoxy)phenyl)propan-2-yl)phenoxy)methyl)pyrimidin-2-yl)methanesulfonamide], the IC50 with LN-CaP95 cells was 2.65 µM; with PC3 cells, above 10 µM; in the series on LNCaP cells, 1.16 µM; in series [2], above 10 µM; in series [4], above 10 µM. In addition, the “Cmin at 5 mg/kg PO” value with LNCaP tumors was 29.1 µM. The half-life at 1 μM in series [3] is above 360 min.
For the molecule `CC(C)(c1ccc(OCc2ncc(S(C)(=O)=O)s2)cc1)c1cc(Cl)c(OCCCl)c(C#N)c1` [Compound A93, 3-chloro-2-(2-chloroethoxy)-5-(2-(4-((5-(methylsulfonyl)thiazol-2-yl)methoxy)phenyl)propan-2-yl)benzonitrile], the figures for the half-life at 1 μM in series [1] and in series [3] were above 360 min and 94 min, respectively. For the same molecule, in series [1], the hepatocyte CLint at 1 μM is below 4 µL/min/1e6 cells. The IC50 in series [2] and in series [4] was above 10 µM each time.
Take `CC(C)(c1ccc(OCc2ccnc(NS(C)(=O)=O)n2)cc1)c1cc(Cl)c(OCCCl)c(C#N)c1` [Compound A109, N-(4-((4-(2-(3-chloro-4-(2-chloroethoxy)-5-cyanophenyl)propan-2-yl)phenoxy)methyl)pyrimidin-2-yl)methanesulfonamide]: the IC50 was 3.78 µM in the series with LN-CaP95 cells; above 10 µM in the series with PC3 cells; 0.44 µM with LNCaP cells; above 10 µM in series [2]; above 10 µM in series [4]. Also, the half-life at 1 μM in series [1] and in series [3] was above 360 min each time. The hepatocyte CLint at 1 μM in series [1] was below 4 µL/min/1e6 cells. Moreover, the “Cmin at 5 mg/kg PO” value with LNCaP tumors is 8.18 µM.
On to `Cc1cnc(NS(C)(=O)=O)nc1COc1ccc(C(C)(C)c2cc(Cl)c(OCCCl)c(C#N)c2)cc1` [Compound A122, N-(4-((4-(2-(3-Chloro-4-(2-chloroethoxy)-5-cyanophenyl)propan-2-yl)phenoxy)methyl)-5-methylpyrimidin-2-yl)methanesulfonamide], for which the hepatocyte CLint at 1 μM in series [1] was in the range of 4 to 18 µL/min/1e6 cells.
Same read-out and setting: the result for `CCS(=O)(=O)Nc1nc(COc2ccc(C(C)(C)c3cc(Cl)c(OCCCl)c(C#N)c3)cc2)co1` [Compound A126] reads below 4 µL/min/1e6 cells.
On the same count and under the same terms, with `CCS(=O)(=O)Nc1nccc(COc2ccc(C(C)(C)c3cc(Cl)c(OCCCl)c(C#N)c3)cc2)n1` [Compound A131] the figure was below 4 µL/min/1e6 cells; with `CC(C)(c1ccc(OCc2nc(S(C)(=O)=O)cs2)cc1)c1cc(Cl)c(OCCCl)c(C#N)c1` [Compound A136, 3-Chloro-2-(2-chloroethoxy)-5-(2-(4-((4-(methylsulfonyl)thiazol-2-yl)methoxy)phenyl)propan-2-yl)benzonitrile], 4 to 18 µL/min/1e6 cells.
For the molecule `CC(C)(c1ccc(OC[C@H](O)CNS(C)(=O)=O)cc1)c1cc(Cl)c(OC[C@H](O)CCl)c(Cl)c1` [X, reference compound], the IC50 in the series with LN-CaP95 cells is 4 µM; in the series on PC3 cells it was above 10 µM; with LNCaP cells it was 3 µM; in series [2], 7.37 µM; in series [4] it was 9.83 µM. Also, the half-life at 1 μM in series [1] amounted to 33 min.
